In ChEMBL document CHEMBL5055686, “Discovery of AL-GDa62 as a Potential Synthetic Lethal Lead for the Treatment of Gastric Cancer” (J Med Chem, 2021):
Calls of active or inactive are those of the source. The rule behind the calls is not given here.

Assays:
MCF-10A [1] = experiment: Antitumor activity against human spontaneously immortalized CDH-/- MCF10A cells assessed as cell numbers measured after 48 hrs; type: functional, cell-based; conditions: Homo sapiens, MCF-10A, 48 h; read-out: EC50
MCF-10A [2] = experiment: Antitumor activity against human spontaneously immortalized CDH-/- MCF10A cells assessed as cell numbers at 3.13 uM measured after 48 hrs; type: functional
[3] = Ratio of EC50 for antitumor activity against human spontaneously immortalized wild type MCF10A cells assessed as cell numbers measured after 48 hrs to antitumor activity against human spontaneously immortalized CDH-/- MCF10A cells assessed as cell numbers measured after 48 hrs; type: functional, MCF-10A
MCF-10A [4] = experiment: Antitumor activity against human spontaneously immortalized wild type MCF-10A cells assessed as cell numbers measured after 48 hrs; type: functional, cell-based; conditions: Homo sapiens, MCF-10A, 48 h; read-out: EC50
MCF-10A [5] = experiment: Induction of apoptosis in human spontaneously immortalized CDH-/- MCF10A cells assessed as apoptotic cells at 12.5 uM measured after 48 hrs by flow cytometry-based annexin-V-FITC/propidium iodide (PI) apoptosis assay; type: functional
MCF-10A [6] = experiment: Induction apoptosis in human CDH-/- MCF10A cells assessed as late apoptotic cells at 6.25 uM measured after 48 hrs by flow cytometry-based annexin-V-FITC/propidium iodide (PI) apoptosis assay (reference value: 3.2%); type: functional
NCI-N87 [7] = experiment: Antitumor activity against human wild type NCI-N87 cells assessed as cell numbers measured after 48 hrs; type: functional, cell-based; conditions: NCI-N87, 48 h
[8] = molecular target: SUMO-conjugating enzyme UBC9 (Homo sapiens) (UniProt P63279); experiment: Binding affinity to SUMO-conjugating UBC9 in human spontaneously immortalized CDH-/- MCF10A cell lysates assessed as change in melting temperature at 3.125 uM for 3 hrs by thermal proteome profiling assay; conditions: MCF-10A
MCF-10A [9] = experiment: Induction apoptosis in human spontaneously immortalized wild type MCF10A cells assessed as necrotic cells at 3.25 uM measured after 48 hrs by flow cytometry-based annexin-V-FITC/propidium iodide (PI) apoptosis assay; type: functional
MCF-10A [10] = experiment: Binding affinity to TCOF1 in human spontaneously immortalized CDH-/- MCF10A cell lysates assessed as change in melting temperature at 3.125 uM for 3 hrs by thermal proteome profiling assay
[11] = molecular target: Actin-related protein 2/3 complex subunit 5 (Homo sapiens) (UniProt O15511); experiment: Binding affinity to ARPC5 in human spontaneously immortalized CDH-/- MCF10A cell lysates assessed as change in melting temperature at 3.125 uM for 3 hrs by thermal proteome profiling assay; conditions: MCF-10A
MCF-10A [12] = experiment: Induction apoptosis in human CDH-/- MCF10A cells assessed as viable cells at 6.25 uM measured after 48 hrs by flow cytometry-based annexin-V-FITC/propidium iodide (PI) apoptosis assay (reference value: 93.6%); type: functional; conditions: read-out: Activity
MCF-10A [13] = experiment: Induction apoptosis in human spontaneously immortalized wild type MCF10A cells assessed as necrotic cells at 6.25 uM measured after 48 hrs by flow cytometry-based annexin-V-FITC/propidium iodide (PI) apoptosis assay; type: functional
MCF-10A [14] = experiment: Induction of apoptosis in human spontaneously immortalized wild type MCF10A cells assessed as apoptotic cells at 12.5 uM measured after 48 hrs by flow cytometry-based annexin-V-FITC/propidium iodide (PI) apoptosis assay; type: functional
MCF-10A [15] = experiment: Induction apoptosis in human spontaneously immortalized wild type MCF10A cells assessed as viable cells at 6.25 uM measured after 48 hrs by flow cytometry-based annexin-V-FITC/propidium iodide apoptosis assay (reference value: 94.4%); type: functional; conditions: read-out: Activity
Homo sapiens = species on record: Homo sapiens; experiment: Inhibition of SUMOylation of GST-tagged RanGAP1 (unknown origin) protein using SUMO1 and UBC9 up to 3.13 uM by Western blotting analysis
NCI-N87 [16] = experiment: Antitumor activity against human CDH-/- NCI-N87cells assessed as cell numbers measured after 48 hrs; type: functional, cell-based; conditions: NCI-N87, 48 h
MCF-10A [17] = experiment: Induction apoptosis in human CDH-/- MCF10A cells assessed as early apoptotic cells at 6.25 uM measured after 48 hrs by flow cytometry-based annexin-V-FITC/propidium iodide (PI) apoptosis assay (reference value: 2.9%); type: functional
[18] = Anticancer activity against mouse gastric organoids assessed as reduction in growth by measuring TdTom CdhI-/- at 1.56 uM incubated for 48 hrs; type: functional, Gastric gland; design: scale not given: the % may be the effect or the level left
[19] = Anticancer activity against mouse mammary organoids assessed as reduction in growth by measuring TdTom CdhI-/- at 12.5 uM incubated for 48 hrs; type: functional, Mammary gland; design: scale not given: the % may be the effect or the level left
MCF-10A [20] = experiment: Induction apoptosis in human spontaneously immortalized wild type MCF10A cells assessed as early apoptotic cells at 6.25 uM measured after 48 hrs by flow cytometry-based annexin-V-FITC/propidium iodide (PI) apoptosis assay (reference value: 1.2%); type: functional
MCF-10A [21] = experiment: Induction apoptosis in human spontaneously immortalized wild type MCF10A cells assessed as late apoptotic cells at 6.25 uM measured after 48 hrs by flow cytometry-based annexin-V-FITC/propidium iodide (PI) apoptosis assay (reference value: 4.2%); type: functional
[22] = Ratio of EC50 for antitumor activity against human NCI-N87 cells assessed as cell numbers measured after 48 hrs to antitumor activity against human CDH-/- NCI-N87 cells assessed as cell numbers measured after 48 hrs; type: functional

Chain of SUMO-conjugating enzyme UBC9 (Homo sapiens) (P63279 whole entry): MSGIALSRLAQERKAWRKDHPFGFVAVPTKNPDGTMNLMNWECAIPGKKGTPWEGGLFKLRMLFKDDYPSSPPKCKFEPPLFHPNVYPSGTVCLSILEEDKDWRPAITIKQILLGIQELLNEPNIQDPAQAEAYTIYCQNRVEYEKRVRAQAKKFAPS

SMILES	EC50 (MCF-10A [1]) [µM]	Ratio EC50 [3]	EC50 (MCF-10A [4]) [µM]	also measured
COc1ccc2nc(CO)cc(NCc3ccc(F)cc3)c2c1	20.8	1.5	31	inhibition at 3.13 µM (MCF-10A [2]): 10%
COc1ccc2nccc(NCc3ccc(F)cc3)c2c1	13.3	1.2	16.4	–
COc1ccc2nc(C)cc(NCc3ccc(F)cc3)c2c1	8.2	1.5	12.2	–
COc1ccc2nc(C)cc(NCc3ccc(F)c(C(F)(F)F)c3)c2c1	11.3	1	14.3	–
COc1ccc2nc(C)cc(NCc3ccc(OC(F)F)cc3)c2c1	10.4	1.4	14.7	–
CCCOc1ccc2nc(C)cc(NCc3ccc(F)cc3)c2c1	9.8	1.5	14.3	–
COc1ccc2nc(C)cc(NCc3ccncc3)c2c1	40.9	1	41.6	–
Cc1cc(NCc2ccc(F)cc2)c2cc(OCCCCCCN=[N+]=[N-])ccc2n1	4.1	1	4	–
COc1ccc2c(NCc3ccc(F)cc3)cc(C)nc2c1	10.2	1.6	15.9	inhibition at 3.13 µM (MCF-10A [2]): 10%
COc1ccc2nc(C)cc(NCc3cccc4ccccc34)c2c1	4.1	12	50	–
COc1cccc(CNc2cc(C)nc3ccc(OCCCN4CCCC4)cc23)c1	3.6	1.2	3.6	–
COc1ccc2nc(C)cc(NCc3ccc(N(C)C)cc3)c2c1	15.1	1.3	20	–
COc1ccc2nc(C)cc(NCc3cc(F)cc(F)c3)c2c1	13.3	1.1	18.1	–
Cc1cc(NCc2ccc(F)cc2)c2cc(OCCCN3CCCC3)ccc2n1	2	1.6	3.2	Activity (MCF-10A [5]): >90%; Activity (MCF-10A [6]): 48%; EC50 (NCI-N87 [7]): 8.5 µM; ΔTm [8]: 5.71 °C; Activity (MCF-10A [9]): 5%; ΔTm (MCF-10A [10]): 8.32 °C; ΔTm [11]: 3.72 °C; viability at 6.25 µM (MCF-10A [12]): 26.7%; Activity (MCF-10A [13]): 32%; Activity (MCF-10A [14]): >90%; viability at 6.25 µM (MCF-10A [15]): 64.9%; inhibition (Homo sapiens): Active; inhibition at 3.13 µM (MCF-10A [2]): 70%; EC50 (NCI-N87 [16]): 16.4 µM; Activity (MCF-10A [17]): 24.7%; Activity [18]: 40%; Activity [19]: 21.3%; Activity (MCF-10A [20]): 23.5%; Activity (MCF-10A [21]): 11.2%; Ratio EC50 [22]: 1.9
COc1ccc2nc(C)cc(NCc3ccc(C(C)(C)C)cc3)c2c1	6.9	1	7	–
COc1ccc2nc(C)cc(NCc3ccc(F)cc3F)c2c1	11.6	1.3	15	–
COc1ccc2nc(C)cc(Nc3ccccc3)c2c1	17.6	0.9	15.9	–

SMILES	EC50 (MCF-10A [1]) [µM]	Ratio EC50 [3]	EC50 (MCF-10A [4]) [µM]	also measured
COc1ccc2nc(CO)cc(NC3CCN(C)CC3)c2c1	32.3	0.9	30.1	–
COc1cc2c(NC3CCN(C)CC3)cc(C)nc2cc1OCCCN1CCCC1	41.1	1	39.2	–
Cc1cc(NCc2ccc(F)cc2)c2cc(OCCCCCCO)ccc2n1	8.1	1.4	11.3	–
COc1ccc2nc(C)cc(NCc3ccccc3OC)c2c1	25.2	1.2	29.5	–
COc1ccc2nc(C)cc(Nc3ccc(F)cc3)c2c1	28	1.1	29.8	–
Cc1cc(NC2CCN(C)CC2)c2cc(OCCCN3CCCC3)ccc2n1	13.2	0.9	11.4	–
COc1ccc2nc(C)cc(NCc3cccc(N(C)C)c3)c2c1	14	1	14	–
COc1ccc2nc(C)cc(NCc3c(F)cccc3F)c2c1	13.6	1.3	13.6	–
COc1ccc2nc(C)cc(NCc3cccnc3)c2c1	44.8	1.1	49.3	–
COc1ccc2nc(C)cc(NCc3cccc(F)c3)c2c1	11.3	1.3	14.7	–
COc1ccc2nc(C)cc(NCc3ccc(C(F)(F)F)cc3)c2c1	7.6	1.4	7.6	–
Cc1cc(NCc2cccc(C#N)c2)c2cc(OCCCN3CCCC3)ccc2n1	8.5	1.2	10.3	–
COc1ccc2nc(C)cc(NCc3ccc(-c4ccccc4)cc3)c2c1	2.8	1	2.7	–
COc1ccc2nc(C)cc(NCc3c(F)cccc3C(F)(F)F)c2c1	14.2	1	14	–
COc1ccc2nc(C)cc(NCc3cccc(-c4ccccc4)c3)c2c1	2.8	1.1	3.1	–
COc1ccc2nc(C)cc(NCc3ccccc3CO)c2c1	22.9	1.1	25.9	–
COc1ccc2nc(-c3ccc(C)o3)cc(NCc3ccc(F)cc3)c2c1	8.3	1.4	11.1	–
